Experimental data reported in ChEMBL document CHEMBL2203257 (Bioorg Med Chem Lett, 2012).

Legend:
[1] = molecular target: Calcium/calmodulin-dependent protein kinase type II subunit gamma (Homo sapiens, UniProt Q13555); experiment: Inhibition of CAMK2G
[2] = molecular target: Calcium/calmodulin-dependent protein kinase kinase 1 (Homo sapiens, UniProt Q8N5S9); experiment: Inhibition of CAMKK1
[3] = molecular target: Cyclin-dependent kinase 9 (Homo sapiens, UniProt P50750); experiment: Inhibition of CDK9
[4] = molecular target: T1, Casein kinase II subunit alpha' (Homo sapiens, UniProt P19784); experiment: Inhibition of CK2a2
[5] = molecular target: Tyrosine-protein kinase CSK (Homo sapiens, UniProt P41240); experiment: Inhibition of CSK
[6] = molecular target: Casein kinase I isoform delta (Homo sapiens, UniProt P48730); experiment: Inhibition of CSNK1D
[7] = molecular target: Casein kinase II subunit alpha (Homo sapiens, UniProt P68400); experiment: Inhibition of CSNK2A1
[8] = molecular target: T1, Casein kinase II subunit alpha'; experiment: Inhibition of CSNK2A2
[9] = molecular target: Epithelial discoidin domain-containing receptor 1 (Homo sapiens, UniProt Q08345); experiment: Inhibition of DDR1
[10] = molecular target: Tyrosine-protein kinase Fes/Fps (Homo sapiens, UniProt P07332); experiment: Inhibition of FES
[11] = molecular target: Fibroblast growth factor receptor 1 (Homo sapiens, UniProt P11362); experiment: Inhibition of FGFR1
[12] = molecular target: Tyrosine-protein kinase FRK (Homo sapiens, UniProt P42685); experiment: Inhibition of FRK
Scaffold protein ILK = Scaffold protein ILK (Homo sapiens, UniProt Q13418); experiment: Inhibition of ILK
[13] = molecular target: Tyrosine-protein kinase JAK2 (Homo sapiens, UniProt O60674); experiment: Inhibition of JAK2
[14] = molecular target: Tyrosine-protein kinase Lyn (Homo sapiens, UniProt P07948); experiment: Inhibition of LYN
[15] = molecular target: Dual specificity mitogen-activated protein kinase kinase 1 (Homo sapiens, UniProt Q02750); experiment: Inhibition of MAP2K1
[16] = molecular target: Dual specificity mitogen-activated protein kinase kinase 2 (Homo sapiens, UniProt P36507); experiment: Inhibition of MAP2K2
[17] = molecular target: Mitogen-activated protein kinase kinase kinase 2 (Homo sapiens, UniProt Q9Y2U5); experiment: Inhibition of MAP3K2
[18] = molecular target: Mitogen-activated protein kinase kinase kinase 3 (Homo sapiens, UniProt Q99759); experiment: Inhibition of MAP3K3
[19] = molecular target: Mitogen-activated protein kinase kinase kinase kinase 2 (Homo sapiens, UniProt Q12851); experiment: Inhibition of MAP4K2
[20] = molecular target: Mitogen-activated protein kinase kinase kinase kinase 3 (Homo sapiens, UniProt Q8IVH8); experiment: Inhibition of MAP4K3
[21] = molecular target: Mitogen-activated protein kinase 1 (Homo sapiens, UniProt P28482); experiment: Inhibition of MAPK1
[22] = molecular target: Macrophage-stimulating protein receptor (Homo sapiens, UniProt Q04912); experiment: Inhibition of MST1R
[23] = molecular target: Serine/threonine-protein kinase Nek9 (Homo sapiens, UniProt Q8TD19); experiment: Inhibition of NEK9
[24] = molecular target: Phosphatidylinositol 4,5-bisphosphate 3-kinase catalytic subunit beta isoform (Homo sapiens, UniProt P42338); experiment: Inhibition of PIK3Cb
[25] = molecular target: Membrane-associated tyrosine- and threonine-specific cdc2-inhibitory kinase (Homo sapiens, UniProt Q99640); experiment: Inhibition of PKMYT1
[26] = molecular target: Serine/threonine-protein kinase N1 (Homo sapiens, UniProt Q16512); experiment: Inhibition of PKN1
[27] = molecular target: Protein kinase C alpha type (Homo sapiens, UniProt P17252); experiment: Inhibition of PRKCA
[28] = molecular target: Protein-tyrosine kinase 6 (Homo sapiens, UniProt Q13882); experiment: Inhibition of PTK6
[29] = molecular target: Proto-oncogene tyrosine-protein kinase receptor Ret (Homo sapiens, UniProt P07949); experiment: Inhibition of RET
[30] = molecular target: Receptor-interacting serine/threonine-protein kinase 3 (Homo sapiens, UniProt Q9Y572); experiment: Inhibition of RIPK3
[31] = molecular target: Serine/threonine-protein kinase 4 (Homo sapiens, UniProt Q13043); experiment: Inhibition of STK4
[32] = molecular target: Dual specificity testis-specific protein kinase 1 (Homo sapiens, UniProt Q15569); experiment: Inhibition of TESK1
[33] = molecular target: Phosphatidylinositol 4,5-bisphosphate 3-kinase catalytic subunit delta isoform/gamma isoform (Homo sapiens, UniProt P48736+O00329); experiment: Inhibition of PI3Kgamma/delta by neutrophil migration assay
[34] = Volume of distribution at steady state […] at 5 mg/kg, po; 1 mg/kg, iv; type: ADME, organism-based; details: read-out: Vdss
[35] = AUC in rat […] at 5 mg/kg, po; 1 mg/kg, iv; type: ADME, organism-based
Cytochrome P450 1A2 = Cytochrome P450 1A2 (Homo sapiens, UniProt P05177); experiment: Inhibition of CYP1A2 at >20 uM; type: ADME
Cytochrome P450 2C9 = Cytochrome P450 2C9 (Homo sapiens, UniProt P11712); experiment: Inhibition of CYP2C9 at >20 uM; type: ADME
Mus musculus = experiment: Antiinflammatory activity in mouse air pouch model assessed as effect on IL-8-induced migration of granulocytes into air pouch at 10 mg/kg, po; type: functional
[36] = molecular target: Tyrosine-protein kinase ABL1 (Homo sapiens, UniProt P00519); experiment: Inhibition of ABL1
[37] = molecular target: Tyrosine-protein kinase ABL2 (Homo sapiens, UniProt P42684); experiment: Inhibition of ABL2
Activin receptor type-2A = Activin receptor type-2A (Homo sapiens, UniProt P27037); experiment: Inhibition of ACVR2A
[38] = molecular target: Serine-protein kinase ATM (Homo sapiens, UniProt Q13315); experiment: Inhibition of ATM
[39] = molecular target: Serine/threonine-protein kinase ATR (Homo sapiens, UniProt Q13535); experiment: Inhibition of ATR
[40] = molecular target: Bromodomain-containing protein 2 (Homo sapiens, UniProt P25440); experiment: Inhibition of BRD2
[41] = molecular target: Calcium/calmodulin-dependent protein kinase type II subunit delta (Homo sapiens, UniProt Q13557); experiment: Inhibition of CAMK2D
[42] = Oral bioavailability in Wistar rat at 5 mg/kg; 1 mg/kg, iv; details: in vivo

T1 sequence (P19784 whole entry): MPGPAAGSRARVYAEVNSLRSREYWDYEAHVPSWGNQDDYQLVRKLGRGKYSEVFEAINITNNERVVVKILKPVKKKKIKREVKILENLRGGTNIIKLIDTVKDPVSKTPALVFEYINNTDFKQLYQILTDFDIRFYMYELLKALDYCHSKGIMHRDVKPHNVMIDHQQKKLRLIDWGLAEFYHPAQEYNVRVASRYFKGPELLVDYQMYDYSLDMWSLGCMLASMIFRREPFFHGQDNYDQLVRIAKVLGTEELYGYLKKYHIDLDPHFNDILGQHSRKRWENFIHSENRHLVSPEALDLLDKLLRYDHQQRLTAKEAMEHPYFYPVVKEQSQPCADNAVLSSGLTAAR
Mitogen-activated protein kinase kinase kinase kinase 3, sequence (Q8IVH8 whole entry): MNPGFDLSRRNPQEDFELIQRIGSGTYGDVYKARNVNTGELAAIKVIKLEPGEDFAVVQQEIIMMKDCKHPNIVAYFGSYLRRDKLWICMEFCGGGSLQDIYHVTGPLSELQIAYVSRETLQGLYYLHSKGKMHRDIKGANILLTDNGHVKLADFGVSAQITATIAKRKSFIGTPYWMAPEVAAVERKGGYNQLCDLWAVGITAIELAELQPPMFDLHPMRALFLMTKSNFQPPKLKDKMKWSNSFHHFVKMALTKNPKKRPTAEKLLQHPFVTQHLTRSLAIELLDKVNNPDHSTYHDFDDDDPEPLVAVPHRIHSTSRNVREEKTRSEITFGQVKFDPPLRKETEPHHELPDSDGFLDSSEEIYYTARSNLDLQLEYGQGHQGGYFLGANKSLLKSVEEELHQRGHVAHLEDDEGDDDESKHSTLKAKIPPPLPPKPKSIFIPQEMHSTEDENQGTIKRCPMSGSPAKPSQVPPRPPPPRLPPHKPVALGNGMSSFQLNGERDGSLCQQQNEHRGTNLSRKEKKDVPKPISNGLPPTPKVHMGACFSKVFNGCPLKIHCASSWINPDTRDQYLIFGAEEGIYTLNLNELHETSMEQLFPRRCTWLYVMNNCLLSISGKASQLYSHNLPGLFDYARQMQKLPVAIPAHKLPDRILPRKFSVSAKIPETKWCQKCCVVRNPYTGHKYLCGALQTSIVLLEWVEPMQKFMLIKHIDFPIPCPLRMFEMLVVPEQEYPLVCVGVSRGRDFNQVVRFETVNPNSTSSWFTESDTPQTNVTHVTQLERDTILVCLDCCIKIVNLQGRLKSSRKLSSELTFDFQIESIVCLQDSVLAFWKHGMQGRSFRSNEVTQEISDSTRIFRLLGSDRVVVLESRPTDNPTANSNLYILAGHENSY
Serine/threonine-protein kinase ATR, sequence (Q13535 whole entry): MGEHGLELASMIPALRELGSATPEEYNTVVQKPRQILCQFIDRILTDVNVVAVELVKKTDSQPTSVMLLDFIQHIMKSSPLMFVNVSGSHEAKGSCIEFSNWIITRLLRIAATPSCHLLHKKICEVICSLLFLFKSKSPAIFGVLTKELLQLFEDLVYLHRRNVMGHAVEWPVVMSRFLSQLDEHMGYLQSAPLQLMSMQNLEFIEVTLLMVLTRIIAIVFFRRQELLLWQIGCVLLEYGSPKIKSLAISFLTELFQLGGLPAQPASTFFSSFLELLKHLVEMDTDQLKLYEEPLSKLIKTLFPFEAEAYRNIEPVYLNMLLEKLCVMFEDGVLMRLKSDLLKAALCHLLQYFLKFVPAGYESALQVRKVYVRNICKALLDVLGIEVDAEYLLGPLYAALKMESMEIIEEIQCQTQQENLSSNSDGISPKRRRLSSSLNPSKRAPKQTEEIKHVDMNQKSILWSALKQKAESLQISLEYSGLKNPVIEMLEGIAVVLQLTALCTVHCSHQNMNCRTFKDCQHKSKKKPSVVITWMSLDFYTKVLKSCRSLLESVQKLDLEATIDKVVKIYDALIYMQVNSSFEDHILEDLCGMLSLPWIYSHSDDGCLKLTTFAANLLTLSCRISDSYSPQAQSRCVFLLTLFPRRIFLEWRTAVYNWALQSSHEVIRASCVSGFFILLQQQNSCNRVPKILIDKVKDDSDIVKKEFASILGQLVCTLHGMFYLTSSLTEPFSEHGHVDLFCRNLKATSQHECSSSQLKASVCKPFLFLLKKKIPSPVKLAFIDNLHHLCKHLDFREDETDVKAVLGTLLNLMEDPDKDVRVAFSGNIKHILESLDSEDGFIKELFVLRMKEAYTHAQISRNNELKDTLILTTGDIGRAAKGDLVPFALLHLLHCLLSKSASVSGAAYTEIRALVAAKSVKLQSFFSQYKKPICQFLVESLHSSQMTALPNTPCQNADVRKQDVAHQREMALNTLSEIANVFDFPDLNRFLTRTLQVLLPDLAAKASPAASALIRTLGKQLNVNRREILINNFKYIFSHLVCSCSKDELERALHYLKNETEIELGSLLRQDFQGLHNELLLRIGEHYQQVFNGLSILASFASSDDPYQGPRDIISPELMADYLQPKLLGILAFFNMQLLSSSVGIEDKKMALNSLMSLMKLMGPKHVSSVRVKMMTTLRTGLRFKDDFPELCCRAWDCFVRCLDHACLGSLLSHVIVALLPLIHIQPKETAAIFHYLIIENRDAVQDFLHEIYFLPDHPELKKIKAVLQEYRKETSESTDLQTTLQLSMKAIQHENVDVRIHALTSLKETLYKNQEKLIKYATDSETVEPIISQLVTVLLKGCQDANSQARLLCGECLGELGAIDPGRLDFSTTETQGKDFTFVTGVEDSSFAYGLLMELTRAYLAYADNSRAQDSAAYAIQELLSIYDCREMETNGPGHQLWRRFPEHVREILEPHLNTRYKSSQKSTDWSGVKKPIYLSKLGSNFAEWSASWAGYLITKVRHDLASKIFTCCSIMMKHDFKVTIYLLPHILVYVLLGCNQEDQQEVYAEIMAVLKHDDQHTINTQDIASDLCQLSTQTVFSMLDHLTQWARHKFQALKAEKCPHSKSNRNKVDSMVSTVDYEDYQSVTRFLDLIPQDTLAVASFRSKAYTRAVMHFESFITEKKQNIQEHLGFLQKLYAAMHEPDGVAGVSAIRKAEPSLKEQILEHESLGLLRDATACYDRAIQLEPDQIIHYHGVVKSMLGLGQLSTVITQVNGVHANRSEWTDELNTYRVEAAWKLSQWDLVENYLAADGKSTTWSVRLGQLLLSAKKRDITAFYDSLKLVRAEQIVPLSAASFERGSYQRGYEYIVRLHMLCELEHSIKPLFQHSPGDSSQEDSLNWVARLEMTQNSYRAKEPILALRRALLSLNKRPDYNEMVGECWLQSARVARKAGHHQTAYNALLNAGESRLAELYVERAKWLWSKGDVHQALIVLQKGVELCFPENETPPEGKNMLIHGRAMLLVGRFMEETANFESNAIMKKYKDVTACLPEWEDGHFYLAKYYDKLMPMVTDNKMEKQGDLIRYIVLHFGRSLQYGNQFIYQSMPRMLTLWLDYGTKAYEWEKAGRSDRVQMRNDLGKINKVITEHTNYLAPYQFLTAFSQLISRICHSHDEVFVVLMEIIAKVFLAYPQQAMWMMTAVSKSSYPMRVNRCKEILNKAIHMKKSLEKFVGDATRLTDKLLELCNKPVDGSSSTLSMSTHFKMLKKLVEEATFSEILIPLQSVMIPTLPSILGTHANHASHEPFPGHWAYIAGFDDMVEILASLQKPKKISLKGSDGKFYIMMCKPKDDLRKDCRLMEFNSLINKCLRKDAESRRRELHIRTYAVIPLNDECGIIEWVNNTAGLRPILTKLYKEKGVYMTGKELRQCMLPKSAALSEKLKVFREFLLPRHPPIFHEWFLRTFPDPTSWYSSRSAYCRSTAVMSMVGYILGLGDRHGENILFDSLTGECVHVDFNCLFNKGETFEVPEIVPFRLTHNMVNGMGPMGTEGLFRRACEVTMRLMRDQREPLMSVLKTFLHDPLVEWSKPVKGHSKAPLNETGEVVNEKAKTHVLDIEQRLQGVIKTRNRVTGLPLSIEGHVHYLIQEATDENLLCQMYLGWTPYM
Bromodomain-containing protein 2, sequence (P25440 whole entry): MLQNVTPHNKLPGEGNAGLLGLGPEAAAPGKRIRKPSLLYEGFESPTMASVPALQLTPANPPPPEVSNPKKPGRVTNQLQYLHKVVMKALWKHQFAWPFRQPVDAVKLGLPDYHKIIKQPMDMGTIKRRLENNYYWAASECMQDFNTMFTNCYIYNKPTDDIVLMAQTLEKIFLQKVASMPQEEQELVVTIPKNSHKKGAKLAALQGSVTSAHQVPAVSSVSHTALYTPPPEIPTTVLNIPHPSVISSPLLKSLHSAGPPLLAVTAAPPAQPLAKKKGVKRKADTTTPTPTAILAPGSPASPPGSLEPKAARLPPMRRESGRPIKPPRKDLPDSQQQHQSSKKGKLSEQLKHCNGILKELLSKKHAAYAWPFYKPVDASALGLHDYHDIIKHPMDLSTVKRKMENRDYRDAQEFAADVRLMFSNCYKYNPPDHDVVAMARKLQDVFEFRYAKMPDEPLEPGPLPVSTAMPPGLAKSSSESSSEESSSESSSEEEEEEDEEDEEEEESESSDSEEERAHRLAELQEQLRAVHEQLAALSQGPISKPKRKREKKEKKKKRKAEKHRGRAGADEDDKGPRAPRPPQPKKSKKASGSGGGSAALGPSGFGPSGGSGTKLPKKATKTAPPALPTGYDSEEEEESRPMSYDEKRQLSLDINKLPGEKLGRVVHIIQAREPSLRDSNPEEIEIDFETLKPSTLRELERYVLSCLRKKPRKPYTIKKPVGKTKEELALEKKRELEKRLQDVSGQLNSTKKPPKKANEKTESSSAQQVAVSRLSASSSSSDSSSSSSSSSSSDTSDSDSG
Cyclin-dependent kinase 9, sequence (P50750 whole entry): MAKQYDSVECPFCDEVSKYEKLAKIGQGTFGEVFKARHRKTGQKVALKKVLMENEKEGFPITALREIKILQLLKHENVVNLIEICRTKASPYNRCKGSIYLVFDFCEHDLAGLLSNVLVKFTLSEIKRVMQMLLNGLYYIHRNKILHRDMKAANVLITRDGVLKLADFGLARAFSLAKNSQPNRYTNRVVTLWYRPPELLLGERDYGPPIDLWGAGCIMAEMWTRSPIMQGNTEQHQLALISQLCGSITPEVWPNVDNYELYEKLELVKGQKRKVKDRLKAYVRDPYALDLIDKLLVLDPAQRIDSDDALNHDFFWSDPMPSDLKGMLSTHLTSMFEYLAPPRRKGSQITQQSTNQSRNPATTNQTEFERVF

Question: For CC(C)(C)NS(=O)(=O)c1cncc(-c2ccn3nc(N)nc3c2)c1, which IC50 [1] is on record?
Answer: > 10 µM

Question: What about the IC50 [2] of the same compound?
Answer: > 10 µM

Question: What about the IC50 [3] of the same compound?
Answer: > 10 µM

Question: And the IC50 [4]?
Answer: > 10 µM

Question: And the IC50 [5]?
Answer: > 10 µM

Question: What about the IC50 [6] of the same compound?
Answer: > 10 µM

Question: And the IC50 [7]?
Answer: > 10 µM

Question: What about the IC50 [8] of the same compound?
Answer: > 10 µM

Question: And the IC50 [9]?
Answer: > 10 µM

Question: And the IC50 [10]?
Answer: > 10 µM

Question: What about the IC50 [11] of the same compound?
Answer: > 10 µM

Question: What about the IC50 [12] of the same compound?
Answer: > 10 µM

Question: What about the IC50 (Scaffold protein ILK) of the same compound?
Answer: > 10 µM

Question: What about the IC50 [13] of the same compound?
Answer: > 10 µM

Question: And the IC50 [14]?
Answer: > 10 µM

Question: And the IC50 [15]?
Answer: > 10 µM

Question: And the IC50 [16]?
Answer: > 10 µM

Question: And the IC50 [17]?
Answer: > 10 µM

Question: And the IC50 [18]?
Answer: > 10 µM

Question: And the IC50 [19]?
Answer: > 10 µM

Question: And the IC50 [20]?
Answer: > 10 µM

Question: And the IC50 [21]?
Answer: > 10 µM

Question: What about the IC50 [22] of the same compound?
Answer: > 10 µM

Question: And the IC50 [23]?
Answer: > 10 µM

Question: And the IC50 [24]?
Answer: 0.49 µM

Question: What about the IC50 [25] of the same compound?
Answer: > 10 µM

Question: What about the IC50 [26] of the same compound?
Answer: > 10 µM

Question: What about the IC50 [27] of the same compound?
Answer: > 10 µM

Question: What about the IC50 [28] of the same compound?
Answer: > 10 µM

Question: What about the IC50 [29] of the same compound?
Answer: > 10 µM

Question: What about the IC50 [30] of the same compound?
Answer: > 10 µM

Question: What about the IC50 [31] of the same compound?
Answer: > 10 µM

Question: What about the IC50 [32] of the same compound?
Answer: > 10 µM

Question: What about the pIC50 [33] of the same compound?
Answer: 6.3

Question: What about the Vd [34] of the same compound?
Answer: 1.3 L/kg

Question: What about the AUC [35] of the same compound?
Answer: 15.3 µM·h

Question: What about the “inhibition (INH)” value (Cytochrome P450 1A2) of the same compound?
Answer: Active

Question: What about the “inhibition (INH)” value (Cytochrome P450 2C9) of the same compound?
Answer: Active

Question: And the Activity (Mus musculus)?
Answer: 73%

Question: And the IC50 [36]?
Answer: > 10 µM

Question: And the IC50 [37]?
Answer: > 10 µM

Question: What about the IC50 (Activin receptor type-2A) of the same compound?
Answer: > 10 µM

Question: And the IC50 [38]?
Answer: > 10 µM

Question: What about the IC50 [39] of the same compound?
Answer: > 5.89 µM

Question: What about the IC50 [40] of the same compound?
Answer: > 10 µM

Question: What about the IC50 [41] of the same compound?
Answer: > 10 µM

Question: And the bioavailability [42]?
Answer: 81%
